The results in this text go back to patent publication US6407134B1, “Heterocyclecarbonyl amino acid hydroxyethylamino sulfonamide retroviral protease inhibitors” (G. D. Searle & Co., priority 1995, dated 2002).

Read-outs that look alike come from different tables or passages of the source.

In assay [1] the test system is HIV-1 in CEM cells. Nature of the assay: CEM cell assay: HIV inhibition in acutely infected cells, tetrazolium (MTT) based colorimetric assay. The conditions noted are these: Human immunodeficiency virus 1, CCRF-CEM, 168 h; CEM cells acutely infected with HIV-1, 7 days, MTT readout. As for the experimental part:
The effectiveness of various compounds were determined in the above-described enzyme assay and in a CEM cell assay.
The HIV inhibition assay method of acutely infected cells is an automated tetrazolium based colorimetric assay essentially that reported by Pauwles et al, J. Virol. Methods, 20, 309-321 (1988). Assays were performed in 96-well tissue culture plates. CEM cells, a CD4+ cell line, were grown in RPMI-1640 medium (Gibco) supplemented with a 10% fetal calf serum and were then treated with polybrene (2 μg/ml). An 80 μl volume of medium containing 1×10^4 cells was dispensed into each well of the tissue culture plate. To each well was added a 100 μl volume of test compound dissolved in tissue culture medium (or medium without test compound as a control) to achieve the desired final concentration and the cells were incubated at 37° C. for 1 hour. […] Likewise, the intrinsic toxicity of the test compound was determined by adding medium without virus to several wells containing test compound. […]
Following the addition of virus, cells were incubated at 37° C. in a humidified, 5% CO2 atmosphere for 7 days. […] The absorbance at 590 nm was determined for each sample using a Molecular Devices microplate reader. Absorbance values for each set of wells is compared to assess viral control infection, uninfected control cell response as well as test compound by cytotoxicity and antiviral efficacy.

The target in assay [2] is T1, HIV protease (Human immunodeficiency virus type 1 group M subtype B, UniProt P04585).
T1 construct: HIV protease is diluted in the assay buffer to a final enzyme concentration of 12.3 nanomolar, based on a molecular weight of 10,780
Briefly: HIV protease enzyme assay (fluorescence, substrate 2-Ile-Nle-Phe(p-NO2)-Gln-ArgNH2). It counts as biochemical. The text has this: The compounds of the present invention are effective HIV protease inhibitors. Utilizing an enzyme assay as described below, the compounds set forth in the examples herein disclosed inhibited the HIV enzyme. The preferred compounds of the present invention and their calculated IC50 (inhibiting concentration 50%, i.e., the concentration at which the inhibitor compound reduces enzyme activity by 50%) values are shown in Table 10. The enzyme method is described below. The substrate is 2-Ile-Nle-Phe(p-NO2)-Gln-ArgNH2. The positive control is MVT-101 (Miller, M. et al, Science, 246, 1149 (1989)] The assay conditions are as follows:
20 mM sodium phosphate, pH 6.4
The above described substrate is dissolved in DMSO, then diluted 10 fold in assay buffer. Final substrate concentration in the assay is 80 μM. HIV protease is diluted in the assay buffer to a final enzyme concentration of 12.3 nanomolar, based on a molecular weight of 10,780.
The final concentration of DMSO is 14% and the final concentration of glycerol is 18%. The test compound is dissolved in DMSO and diluted in DMSO to 10× the test concentration; 10 μl of the enzyme preparation is added, the materials mixed and then the mixture is incubated at ambient temperature for 15 minutes. […] The increase in fluorescence is monitored at 4 time points (0, 8, 16 and 24 minutes) at ambient temperature. […]

For `CC(C)CN(C[C@@H](O)[C@H](Cc1ccccc1)NC(=O)[C@@H](NC(=O)[C@@H]1CCCN1)C(C)(C)C)S(=O)(=O)c1ccc2c(c1)OCO2` [Entry 1], it took 12 nM to reach a half-maximal effect in assay [1] (EC50). For the same compound, the IC50 in assay [2] amounted to 2 nM. For `CCC(C)[C@H](NC(=O)[C@@H]1CCCN1)C(=O)N[C@@H](Cc1ccccc1)[C@H](O)CN(CC(C)C)S(=O)(=O)c1ccc2c(c1)OCO2` (stereo partly drawn) [Entry 2], the IC50 in assay [2] (HIV protease 12.3 nanomolar, substrate 80 μM, pH 6.4, ambient temperature, read-out: IC50) came to 3 nM.

A word on the EC50: it is the concentration giving half of the maximal effect. As a reminder, the IC50 is the midpoint of a concentration-inhibition curve.
